Test results taken from patent publication US6590140B1, “Metal-regulated transporters and uses therefor” (Trustees of Dartmouth College, priority 1996, dated 2003).

Key:
[1] = test system: zrt1zrt2 double mutant strain ZHY3; assay: 65Zn uptake assay in zrt1zrt2 double mutant; assay type: cell-based, Saccharomyces cerevisiae; settings: ZHY3 without ZIP gene, 5 minute time course using 10 mM Zn
Procedure: (§1) Zinc uptake assays were performed as described previously for iron uptake (Eide et al. (1992) J. Biol. Chem. 267:20774-20781) except that ^65ZnCl2 (Amersham) and LZM-EDTA were substituted for ^59FeCI3 and LIM-EDTA, respectively. Cells were incubated for 5 minutes in LZM-EDTA plus the indicated concentration of ^65Zn, collected on glass fiber filters (Schleicher and Schuell), washed with 10 ml ice-cold SSW (1 mM EDTA, 20 mM trisodium citrate, 1 mM KH2PO4, 1 mM CaCl2, 5 mM MgSO4, 1 mM NaCl pH 4.2), and cell-associated radioactivity was measured by liquid scintillation counting. […] Michaelis-Menten kinetic values were determined using […] software (Intellikinetics, Princeton, N.J.). […] The statistical significance of the differences of values relative to controls was determined with one-way analysis of variance (ANOVA) followed by a Dunnett multiple comparison test. β-galactosidase activity was assayed in cells harvested at an OD600 of 0.5-2.0 as described by Guarente (Guarente, L. (1983) Methods Enzymol. 101:181-191) and activity is expressed as the change in absorbance at 420 nm×1000 divided by (min×ml of culture used×OD600 of the culture). Cell-associated zinc was measured in parallel cultures supplemented with tracer amounts of ^65Zn (10 μM) and nonradioactive zinc to the indicated final concentration. […]

ZIP2 = biological target: T1, ZIP2 (Arabidopsis thaliana, UniProt Q9LTH9); assay: Zn uptake by ZHY3 containing ZIP2; assay type: cell-based; settings: ZHY3 cells containing ZIP2, 5 minute time course using 10 mM Zn
T1 construct: expressed in transfected cells; host or cells: S. cerevisiae ZHY3 (zrt1::LEU2 zrt2::HIS3) with an Arabidopsis cDNA clone in pFL61
T1 sequence (Q9LTH9 30-353): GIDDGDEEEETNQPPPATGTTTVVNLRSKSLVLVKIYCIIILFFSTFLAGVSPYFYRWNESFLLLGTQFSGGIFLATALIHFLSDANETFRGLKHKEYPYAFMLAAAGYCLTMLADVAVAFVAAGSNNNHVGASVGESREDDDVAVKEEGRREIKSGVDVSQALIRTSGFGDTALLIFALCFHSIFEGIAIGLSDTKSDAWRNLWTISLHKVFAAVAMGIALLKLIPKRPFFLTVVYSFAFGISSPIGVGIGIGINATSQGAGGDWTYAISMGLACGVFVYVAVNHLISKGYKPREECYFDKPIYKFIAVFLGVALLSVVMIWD
Procedure: as §1

ZRT1 promoter = assay: ZRT1-lacZ fusion β-galactosidase assay; assay type: cell-based, Saccharomyces cerevisiae; settings: LZM-EDTA, 16 hours
Procedure: Zinc uptake assays were performed as described previously for iron uptake (Eide et al. (1992) J. Biol. Chem. 267:20774-20781) except that ^65ZnCl2 (Amersham) and LZM-EDTA were substituted for ^59FeCI3 and LIM-EDTA, respectively. Cells were incubated for 5 minutes in LZM-EDTA plus the indicated concentration of ^65Zn, collected on glass fiber filters (Schleicher and Schuell), washed with 10 ml ice-cold SSW (1 mM EDTA, 20 mM trisodium citrate, 1 mM KH2PO4, 1 mM CaCl2, 5 mM MgSO4, 1 mM NaCl pH 4.2), and cell-associated radioactivity was measured by liquid scintillation counting. Cells were starved for glucose by incubating them in LZM-EDTA prepared without glucose for one hour at 30° C. prior to assay. Michaelis-Menten kinetic values were determined using […] software (Intellikinetics, Princeton, N.J.). Stock solutions of the chloride salts of Co, Cu, Mg, Mn, and Ni were prepared in distilled water at a concentration of 100 mM. The nonradioactive ZnCl2 stock was prepared at 100 mM in 0.02 N HCl and the FeCl3 stock was prepared at 50 mM in 0.1 N HCl. The statistical significance of the differences of values relative to controls was determined with one-way analysis of variance (ANOVA) followed by a Dunnett multiple comparison test. β-galactosidase activity was assayed in cells harvested at an OD600 of 0.5-2.0 as described by Guarente (Guarente, L. (1983) Methods Enzymol. 101:181-191) and activity is expressed as the change in absorbance at 420 nm×1000 divided by (min×ml of culture used×OD600 of the culture). Cell-associated zinc was measured in parallel cultures supplemented with tracer amounts of ^65Zn (10 μM) and nonradioactive zinc to the indicated final concentration. Aliquots (0.5 ml) were filtered, washed with 10 ml ice-cold SSW, and radioactivity measured by liquid scintillation.
The effects of the zrt2 mutation on the regulation of the ZRT1 gene was also examined. […] Furthermore, cell-associated zinc levels are much lower in the zrt1 mutant grown in zinc-limiting conditions. At higher concentrations of extracellular zinc, however, these levels increased to the wild type levels. It was proposed that this accumulation was the result of zinc uptake by the low affinity system. To test this hypothesis and determine the effect of the zrt2 mutation on the pool of intracellular zinc that regulates ZRT1 gene expression, β-galactosidase activity from the ZRT1-lacZ fusion in wild type, zrt1, zrt2, and zrt1zrt2 mutant strains grown in media supplemented with a broad range of zinc concentrations was measured. […] These values are also plotted against the calculated free zinc concentration ([Zn]F). […]

[Zn+2] [zinc]
zinc uptake [1]: essentially no detectable zinc uptake | Zn uptake (ZIP2): no Zn uptake | calculated free zinc [Zn]F at which β-galactosidase activity decreased to its minimal level (ZRT1 promoter; zrt1 mutant): ~0.12 µM | total zinc at which β-galactosidase activity decreased to its minimal level (ZRT1 promoter; zrt1 mutant): 10 µM | calculated free zinc [Zn]F at which ZRT1-lacZ expression was down-regulated (ZRT1 promoter; zrt1zrt2 mutant): ~2.4 µM | total zinc concentration at which ZRT1-lacZ expression was down-regulated (ZRT1 promoter; zrt1zrt2 mutant): ≥ 200 µM
